We go through one compound from patent publication US20230241229A1, “A SAPOGENIN POLYETHYLENE GLYCOL ESTER COMPLEX OF FORMULA-I, A COMPOSITION, PROCESS OF PREPARATION, AND APPLICATIONS THEREOF” (PHYTOSOL INDIA PRIVATE LIMITED, priority 2020, published 2023).

The data set is described as follows: Solubility of the compositions by adding water. The data set is classed as physicochemical. Conditions: component weight 100 mg. Here is the method: Solubility of the Compositions I, II and III are determined by adding water to the composition and control curcumin (without the Diosgenin polyethylene glycol succinate).

Take `COc1cc(/C=C/C(=O)CC(=O)/C=C/c2ccc(O)c(OC)c2)ccc1O` [Control, Curcumin]: the “Water in ml require to solubilize” value was over 1000 mL.
